# Where two headings read alike, the source gives them in different places.
# Tests used:
# mature hCO = experiment: single organoid quantitative proteomics of mature hCO; assay type: cell-based, human; conditions: for cell cycle programs regulated at the protein level: mature hCO, 2 days
# Procedure: Single hCO were washed 2× in PBS and snap frozen and stored at −80° C. Tissues were lysed in by tip-probe sonication in 1% SDS containing 100 mM Tris pH 8.0, 10 mM tris(2-carboxyethyl)phosphine, 40 mM 2-chloroacetamide and heated to 95° C. for 5 min. Proteins were purified using a modified Single-Pot Solid-Phase-enhanced Sample Preparation (SP3) strategy (Hughes et al., 2014). Briefly, Proteins were bound to Sera-Mag carboxylate coated paramagnetic beads in 50% acetonitrile containing 0.8% formic acid (v/v) (ThermoFisher Scientific). The beads were washed twice with 70% ethanol (v/v) and once with 100% acetonitrile. Proteins were digested on the beads in 100 mM Tris pH 7.5 containing 10% 2,2,2-Trifluoroethanol overnight at 37° C. with 200 ng of sequencing grade LysC (Wako Chemicals) and trypsin (Sigma). Beads were removed and peptides acidified to 1% trifluoroacetic acid prior to purification by styrene divinyl benzene-reversed phase sulfonated solid phase extraction microcolumns. Peptides were spiked with iRT peptides (Biognosys) and analysed on an Easy-nLC1200 coupled to a Q-Exactive HF in positive polarity mode. Peptides were separated using an in-house packed 75 μm×50 cm pulled column (1.9 μm particle size, C18AQ; Dr Maisch) with a gradient of 2-35% acetonitrile containing 0.1% FA over 120 min at 300 nL/min at 60° C. The instrument was operated in data-independent acquisition (DIA) mode essentially as described previously (Bruderer et al., 2017). Briefly, an MS1 scan was acquired from 350-1650 m/z (120,000 resolution, 3e6 AGC, 50 ms injection time) followed by 20 MS/MS variable sized isolation windows with HCD (30,000 resolution, 3e6 AGC, 27 NCE). A spectral library was created by fractionating a pooled mix of peptides from 10 separate hCO on an inhouse packed 320 μm×25 cm column (3 μm particle size, BEH; Waters) with a gradient of 2-40% acetonitrile containing 10 mM ammonium formate over 60 min at 6 μL/min using an Agilent 1260 HPLC. A total of 12 concatenated fractions were analysed using the identical LC-MS/MS conditions above except the instrument was operated in data-dependent acquisition (DDA) mode. Briefly, an MS1 scan was acquired from 350-1650 m/z (60,000 resolution, 3e6 AGC, 50 ms injection time) followed by 20 MS/MS with HCD (1.4 m/z isolation, 15,000 resolution, 1e5 AGC, 27 NCE). DDA data were processed with Andromeda in MaxQuant v1.5.8.3 (Cox and Mann, 2008) against the human UniProt database (January 2016) using all default settings with peptide spectral matches and protein false discovery rate (FDR) set to 1%. DIA data were processed with Spectronaut v11 (Bruderer et al., 2015) using all default settings with precursor and protein FDR set to 1% and quantification performed at MS2.
# Proteomic data were Log 2 transformed and median normalised. Removal of unwanted variation method (RUV) was applied to remove any batch effects (Gagnon-Bartsch et al., 2013). Differential abundance was determined with two sample t-tests with FDR-based multiple hypothesis testing correction. GO analysis was performed with DAVID v6.8 and gene ontology terms from BP_FAT (Huang da et al., 2009) and heat-maps and hierarchical clustering was performed using GENE-E (Broad Institute).
# In order to determine the biological processes driving the pro-proliferative effects of our hit compounds, we performed RNA-sequencing (RNA-seq) and single organoid quantitative proteomics (FIG. 4A). These analyses were performed on hCOs treated with compounds 3, 63 and 65 at concentrations of 3 μM, 0.3 μM and 1 μM, respectively. RNA-seq for hCO treated with compounds 3 and 65 clustered distinctly in principal component analysis (FIG. 4B) and regulated a total of 239 and 207 genes (FIG. 9A), respectively.
# kinases [1] = biological target: kinases (Homo sapiens, UniProt P11362); assay type: biochemical; conditions: FGFR1 *Mn* FRET-Z-Lyte SP; Test Conc(μM):ATP Conc(μM) 1:25
# kinases [2] = biological target: kinases (Homo sapiens, UniProt P21802); assay type: biochemical; conditions: FGFR2 *Mn* FRET-Z-Lyte SP; Test Conc(μM):ATP Conc(μM) 1:5
# kinases [3] = biological target: kinases (Homo sapiens, UniProt P23458); assay type: biochemical; conditions: JAK1 FRET-Z-Lyte SP; Test Conc(μM):ATP Conc(μM) 1:75
# kinases [4] = biological target: kinases (Homo sapiens, UniProt P41279); assay type: biochemical; conditions: MAP3K8 (COT) Cascade Z-Lyte SP; Test Conc(μM):ATP Conc(μM) 1:100
# kinases [5] = biological target: kinases (Homo sapiens, UniProt P45983); assay type: biochemical
# kinases [6] = biological target: kinases (Homo sapiens, UniProt P51955); assay type: biochemical; conditions: NEK2 FRET-Z-Lyte SP; Test Conc(μM):ATP Conc(μM) 1:150
# kinases [7] = biological target: kinases (Homo sapiens, UniProt Q00535); assay type: biochemical
# kinases [8] = biological target: kinases (Homo sapiens, UniProt Q07002); assay type: biochemical; conditions: CDK18/cyclin Y FRET-Z-Lyte SP; Test Conc(μM):ATP Conc(μM) 1:75
# kinases [9] = biological target: kinases (Homo sapiens, UniProt Q12866); assay type: biochemical; conditions: MERTK (cMER) *Mn* Z-Lyte SP; Test Conc(μM):ATP Conc(μM) 1:10
# kinases [10] = biological target: kinases (Homo sapiens, UniProt Q99558); assay type: biochemical; conditions: MAP3K14 (NIK) FRET-Lantha SP; Test Conc(μM) 1
# kinases [11] = biological target: kinases (Homo sapiens, UniProt Q9BTU6); assay type: biochemical; conditions: PI4K2A *Mn* FRET-Adapta SP; Test Conc(μM):ATP Conc(μM) 1:10
# kinases [12] = biological target: kinases (Homo sapiens, UniProt Q9UKE5); assay type: biochemical; conditions: TNIK FRET-Lantha SP; Test Conc(μM) 1
# [13] = MAPK8 (JNK1) Cascade Z-Lyte SP, Test Conc(μM):ATP Conc(μM) 1:100
# [14] = MAPK8 (JNK1) FRET-Lantha SP, Test Conc(μM) 1
# [15] = CDK5 (Inactive) FRET-Lantha SP, Test Conc(μM) 1
# [16] = CDK5/p25 FRET-Z-Lyte SP, Test Conc(μM):ATP Conc(μM) 1:10
# [17] = CDK5/p35 FRET-Z-Lyte SP, Test Conc(μM):ATP Conc(μM) 1:10
# kinases (Homo sapiens, UniProt P45983), sequence (P45983 whole entry): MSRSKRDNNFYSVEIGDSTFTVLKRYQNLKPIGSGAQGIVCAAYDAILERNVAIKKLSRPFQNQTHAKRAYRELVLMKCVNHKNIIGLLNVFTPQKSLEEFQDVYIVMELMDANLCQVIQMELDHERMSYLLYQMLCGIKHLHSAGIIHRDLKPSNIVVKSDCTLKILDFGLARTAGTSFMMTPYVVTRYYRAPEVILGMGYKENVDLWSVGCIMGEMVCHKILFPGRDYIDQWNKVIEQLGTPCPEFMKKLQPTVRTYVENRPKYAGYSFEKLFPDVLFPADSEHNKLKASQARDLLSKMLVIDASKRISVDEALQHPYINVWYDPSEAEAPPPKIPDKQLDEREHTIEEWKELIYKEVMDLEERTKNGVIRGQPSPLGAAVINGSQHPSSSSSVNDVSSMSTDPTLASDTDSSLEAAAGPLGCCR
# kinases (Homo sapiens, UniProt Q00535), sequence (Q00535 whole entry): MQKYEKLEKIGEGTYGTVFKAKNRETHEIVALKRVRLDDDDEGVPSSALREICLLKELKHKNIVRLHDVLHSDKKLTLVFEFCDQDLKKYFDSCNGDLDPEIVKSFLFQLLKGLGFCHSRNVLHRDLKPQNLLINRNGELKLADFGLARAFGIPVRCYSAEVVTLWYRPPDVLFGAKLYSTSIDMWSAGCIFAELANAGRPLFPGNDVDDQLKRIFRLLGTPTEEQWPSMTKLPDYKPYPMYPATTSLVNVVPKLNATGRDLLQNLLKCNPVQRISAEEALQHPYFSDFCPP
# kinases (Homo sapiens, UniProt Q99558), sequence (Q99558 whole entry): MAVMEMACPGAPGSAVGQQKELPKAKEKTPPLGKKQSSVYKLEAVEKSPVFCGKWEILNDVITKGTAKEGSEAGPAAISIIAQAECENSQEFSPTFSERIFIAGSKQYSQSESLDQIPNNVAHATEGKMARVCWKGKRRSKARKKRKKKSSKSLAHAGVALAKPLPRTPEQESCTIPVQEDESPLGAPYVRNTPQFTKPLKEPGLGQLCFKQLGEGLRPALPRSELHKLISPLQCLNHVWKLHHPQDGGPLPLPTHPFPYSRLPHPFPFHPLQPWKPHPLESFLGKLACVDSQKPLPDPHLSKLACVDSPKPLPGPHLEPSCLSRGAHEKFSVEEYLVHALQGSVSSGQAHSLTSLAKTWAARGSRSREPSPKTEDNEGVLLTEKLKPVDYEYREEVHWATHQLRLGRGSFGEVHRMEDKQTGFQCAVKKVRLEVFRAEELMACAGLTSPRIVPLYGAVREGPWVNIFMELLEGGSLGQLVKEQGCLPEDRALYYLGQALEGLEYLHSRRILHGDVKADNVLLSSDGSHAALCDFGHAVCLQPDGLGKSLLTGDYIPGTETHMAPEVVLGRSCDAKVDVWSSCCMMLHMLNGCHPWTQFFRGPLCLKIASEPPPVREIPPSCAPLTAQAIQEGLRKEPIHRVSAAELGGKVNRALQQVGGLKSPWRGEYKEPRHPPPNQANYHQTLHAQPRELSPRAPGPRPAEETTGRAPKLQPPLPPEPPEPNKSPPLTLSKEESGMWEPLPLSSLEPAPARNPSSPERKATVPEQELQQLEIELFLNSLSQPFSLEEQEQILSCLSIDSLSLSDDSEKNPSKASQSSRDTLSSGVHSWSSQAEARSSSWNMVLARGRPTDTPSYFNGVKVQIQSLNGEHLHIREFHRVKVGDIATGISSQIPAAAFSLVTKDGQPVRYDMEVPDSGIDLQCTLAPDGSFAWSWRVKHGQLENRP
# kinases (Homo sapiens, UniProt Q07002), sequence (Q07002 whole entry): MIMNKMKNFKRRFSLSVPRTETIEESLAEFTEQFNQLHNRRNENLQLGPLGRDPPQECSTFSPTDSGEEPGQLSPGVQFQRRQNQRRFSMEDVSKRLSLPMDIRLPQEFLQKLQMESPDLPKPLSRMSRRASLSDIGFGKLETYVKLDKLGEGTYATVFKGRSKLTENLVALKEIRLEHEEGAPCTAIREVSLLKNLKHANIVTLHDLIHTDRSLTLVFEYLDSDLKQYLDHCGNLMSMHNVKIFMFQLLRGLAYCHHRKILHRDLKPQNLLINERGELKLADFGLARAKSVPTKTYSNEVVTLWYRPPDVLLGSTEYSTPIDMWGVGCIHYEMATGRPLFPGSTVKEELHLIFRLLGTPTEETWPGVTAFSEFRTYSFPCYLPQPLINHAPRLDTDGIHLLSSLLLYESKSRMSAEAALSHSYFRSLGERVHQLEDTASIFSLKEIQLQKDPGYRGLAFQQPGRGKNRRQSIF
# kinases (Homo sapiens, UniProt P21802), sequence (P21802 22-821): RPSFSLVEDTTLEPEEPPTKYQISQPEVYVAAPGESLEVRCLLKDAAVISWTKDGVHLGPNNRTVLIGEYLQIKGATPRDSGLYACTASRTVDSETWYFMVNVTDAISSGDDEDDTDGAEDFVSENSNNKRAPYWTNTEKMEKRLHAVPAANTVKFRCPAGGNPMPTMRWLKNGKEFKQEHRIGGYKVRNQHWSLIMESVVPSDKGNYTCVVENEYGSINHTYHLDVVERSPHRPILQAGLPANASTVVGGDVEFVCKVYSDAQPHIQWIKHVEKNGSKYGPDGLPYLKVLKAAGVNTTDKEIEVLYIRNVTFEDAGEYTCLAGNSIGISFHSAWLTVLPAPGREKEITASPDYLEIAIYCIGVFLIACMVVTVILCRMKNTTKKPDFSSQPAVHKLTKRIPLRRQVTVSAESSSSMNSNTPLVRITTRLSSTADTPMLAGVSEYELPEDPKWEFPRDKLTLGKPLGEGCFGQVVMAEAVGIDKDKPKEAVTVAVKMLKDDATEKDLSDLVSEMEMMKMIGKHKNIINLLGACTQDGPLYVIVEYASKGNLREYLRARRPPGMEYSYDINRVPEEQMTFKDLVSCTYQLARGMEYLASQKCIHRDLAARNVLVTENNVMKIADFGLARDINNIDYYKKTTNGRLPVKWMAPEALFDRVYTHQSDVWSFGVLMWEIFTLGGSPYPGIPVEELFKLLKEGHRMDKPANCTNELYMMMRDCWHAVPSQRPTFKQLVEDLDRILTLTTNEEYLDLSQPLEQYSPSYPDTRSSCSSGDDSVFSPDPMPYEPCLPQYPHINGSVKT
# kinases (Homo sapiens, UniProt Q9BTU6), sequence (Q9BTU6 whole entry): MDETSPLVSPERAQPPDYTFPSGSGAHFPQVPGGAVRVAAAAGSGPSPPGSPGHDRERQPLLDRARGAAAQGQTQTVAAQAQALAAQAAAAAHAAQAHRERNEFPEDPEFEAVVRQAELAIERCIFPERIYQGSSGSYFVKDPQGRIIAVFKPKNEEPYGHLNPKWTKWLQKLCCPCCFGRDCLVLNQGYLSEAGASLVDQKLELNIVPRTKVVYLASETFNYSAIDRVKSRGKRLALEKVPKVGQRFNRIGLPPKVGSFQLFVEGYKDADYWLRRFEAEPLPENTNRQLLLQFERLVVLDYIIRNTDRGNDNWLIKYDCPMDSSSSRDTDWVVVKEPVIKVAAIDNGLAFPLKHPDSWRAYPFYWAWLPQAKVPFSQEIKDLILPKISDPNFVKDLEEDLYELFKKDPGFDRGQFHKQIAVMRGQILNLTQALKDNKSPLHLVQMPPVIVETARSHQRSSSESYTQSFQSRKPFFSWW
# kinases (Homo sapiens, UniProt P11362), sequence (P11362 22-822): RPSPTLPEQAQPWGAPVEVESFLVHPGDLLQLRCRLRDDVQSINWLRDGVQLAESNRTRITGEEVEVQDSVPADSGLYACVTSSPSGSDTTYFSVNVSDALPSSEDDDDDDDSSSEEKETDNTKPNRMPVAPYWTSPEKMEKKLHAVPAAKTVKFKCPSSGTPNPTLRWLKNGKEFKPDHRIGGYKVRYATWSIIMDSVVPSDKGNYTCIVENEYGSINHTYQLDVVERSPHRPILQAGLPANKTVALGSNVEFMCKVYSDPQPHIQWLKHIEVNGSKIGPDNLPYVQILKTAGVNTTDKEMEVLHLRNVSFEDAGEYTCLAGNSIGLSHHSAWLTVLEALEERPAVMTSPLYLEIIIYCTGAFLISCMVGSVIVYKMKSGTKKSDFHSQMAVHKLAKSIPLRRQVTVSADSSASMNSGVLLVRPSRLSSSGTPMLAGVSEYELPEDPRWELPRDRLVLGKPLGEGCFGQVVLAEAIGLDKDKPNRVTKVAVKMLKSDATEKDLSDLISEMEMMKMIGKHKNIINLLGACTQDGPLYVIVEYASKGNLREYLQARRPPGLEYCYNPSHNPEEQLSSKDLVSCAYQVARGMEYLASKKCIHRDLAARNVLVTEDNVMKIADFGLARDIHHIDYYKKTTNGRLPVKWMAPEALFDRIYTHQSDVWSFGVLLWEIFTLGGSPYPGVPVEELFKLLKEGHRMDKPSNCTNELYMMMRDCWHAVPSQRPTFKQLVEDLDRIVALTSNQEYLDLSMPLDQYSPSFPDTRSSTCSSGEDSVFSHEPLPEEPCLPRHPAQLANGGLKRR
# kinases (Homo sapiens, UniProt P51955), sequence (P51955 whole entry): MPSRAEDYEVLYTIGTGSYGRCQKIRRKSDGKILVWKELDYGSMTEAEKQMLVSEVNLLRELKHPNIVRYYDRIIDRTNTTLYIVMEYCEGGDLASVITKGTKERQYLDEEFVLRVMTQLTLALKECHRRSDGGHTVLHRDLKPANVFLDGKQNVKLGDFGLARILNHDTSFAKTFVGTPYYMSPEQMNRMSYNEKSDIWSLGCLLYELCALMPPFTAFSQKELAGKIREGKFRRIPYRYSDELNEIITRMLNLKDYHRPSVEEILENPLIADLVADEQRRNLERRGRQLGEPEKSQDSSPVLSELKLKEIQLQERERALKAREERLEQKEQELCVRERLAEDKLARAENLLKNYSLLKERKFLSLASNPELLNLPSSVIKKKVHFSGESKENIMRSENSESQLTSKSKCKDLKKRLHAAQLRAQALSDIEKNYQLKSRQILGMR
SMILES,"proliferation signature proteins (cell cycle network, mevalonate enzymes, nuclear transporters) (mature hCO; mature hCO proteomics)",cell cycle programs regulated at the protein level (mature hCO),Mean Inhib (%) (kinases [1]),Mean Inhib (%) (kinases [2]),Mean Inhib (%) (kinases [3]),Mean Inhib (%) (kinases [4]),Mean Inhib (%) (kinases [5]; [13]),Mean Inhib (%) (kinases [5]; [14]),Mean Inhib (%) (kinases [6]),Mean Inhib (%) (kinases [7]; [15]),Mean Inhib (%) (kinases [7]; [16]),Mean Inhib (%) (kinases [7]; [17]),Mean Inhib (%) (kinases [8]),Mean Inhib (%) (kinases [9]),Mean Inhib (%) (kinases [10]),Mean Inhib (%) (kinases [11]),Mean Inhib (%) (kinases [12]),induction of the mevalonate pathway (cholesterol biosynthetic process enzymes) (mature hCO; mature hCO proteomics)
Cc1ccc(NC(=O)c2ccnc(N3CCOCC3)c2)cc1Nc1ccnc(N2CC(C)OC(C)C2)n1 (centres unmarked) [compound 3],induced,"DNA replication, G1/S transition and G2/M transition",6.5,15.8,−1.9,6.1,6.5,−6.1,−0.8,5.2,2.0,0.9,2.7,13.1,−1.3,−2.4,4.1,–
Cc1cc(Oc2ccnc(Nc3ccc(S(N)(=O)=O)cc3)c2)c(-c2ccccn2)nc1C [compound 65],induced,"DNA replication, G1/S transition and G2/M transition",4.3,6.0,4.3,21.2,16.9,7.0,12.8,17.2,8.0,2.5,1.2,7.3,4.9,−2.9,58.4,most robust inducers
